# Patent US5134124A, “Use of a statin derivative in the treatment of eye complaints” (Sanofi, priority 1989, dated 1992)
# Assays:
# [1] = molecular target: T1, human plasma renin (Homo sapiens, UniProt P00797); experiment: Inhibition of human plasma renin activity at pH 7.4; type: biochemical; settings: method of EP 211 744, read-out: 50% inhibitory concentration (IC50), inhibition of human plasma renin activity
# T1 construct: from tissue; host or cells: human plasma
# T1 sequence (P00797 67-406): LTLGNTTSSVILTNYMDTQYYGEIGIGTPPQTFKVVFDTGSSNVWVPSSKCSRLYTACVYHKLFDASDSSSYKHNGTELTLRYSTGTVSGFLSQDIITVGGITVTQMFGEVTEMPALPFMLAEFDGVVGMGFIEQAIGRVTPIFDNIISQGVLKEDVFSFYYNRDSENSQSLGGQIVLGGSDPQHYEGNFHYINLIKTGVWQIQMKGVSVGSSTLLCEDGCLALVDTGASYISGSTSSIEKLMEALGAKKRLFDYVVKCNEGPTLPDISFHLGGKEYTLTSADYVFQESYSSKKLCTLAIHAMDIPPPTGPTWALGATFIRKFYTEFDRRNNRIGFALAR
# Protocol: The inhibition of human plasma renin activity at pH 7.4 was measured for this compound (I) according to the method described in patent application EP 211 744.
# [2] = tested on: intraocular pressure in rabbits; experiment: Effect on the intraocular pressure in rabbits after increase by intravenous injection of a 5% glucose solution; type: in vivo; settings: eye lotion, pressure increased by intravenous injection of a 5% glucose solution
compound,measurement,setting,value
"CCC(C)C(NC(=O)CC(O)C(CC1CCCCC1)NC(=O)C(Cc1cnc[nH]1)NC(=O)C(Cc1ccccc1)NC(=O)CCc1cccnc1)C(=O)NC(O)C(C)CO (centres unmarked) [compound (I), N-(3-pyridylpropionyl)phenylalanylhistidyl(cyclohexyl)statyl-N-(1,3-dihydroxy-2-methylpropyl)isoleucinamide]",IC50,[1],1 pM
same,effect on the intraocular pressure,[2],enables the intraocular pressure to return rapidly to its normal value
